2 molecules from article PMC7312375, “A Novel, Pan-PDE Inhibitor Exerts Anti-Fibrotic Effects in Human Lung Fibroblasts via Inhibition of TGF-β Signaling and Activation of cAMP/PKA Signaling” (International Journal of Molecular Sciences, 2020) can be followed below.

Molecules are shown by their SMILES.

Test [1] concerns MRC-5 cells. Kind of test: FBS-induced MRC-5 proliferation, alamarBlue assay. It is filed as cell-based, human. The conditions noted are these: for inhibition at 50 µM: Homo sapiens, MRC5, read-out: inhibition of FBS-induced MRC-5 proliferation rate; for MRC-5 proliferation [% of control]: Table S1 (Figure 2B), 48 h with FBS. How it is done:
The normal human lung fibroblast cell line—MRC-5 (ATCC® CCL-171™, Manassas, VA, USA)—was used in the study. Cells were cultured in Eagle’s Minimum Essential Medium (EMEM, ATCC® 30-2003™, Manassas, VA, USA) supplemented with 10% (v/v) fetal bovine serum (FBS; Gibco, Thermo Fisher Scientific, Waltham, MA, USA) and antibiotics mixture (penicillin, streptomycin, amphotericin B; Gibco, Thermo Fisher Scientific, Waltham, MA, USA) (standard culture medium) in standard culture conditions (5% CO2, 37 °C, 95% humidity). Unless otherwise specified, for the experiments, cells were seeded at a final density (5 × 10^3/cm^2) in standard culture medium for 24 h and then cultured in EMEM at reduced serum content (0.5%; v/v) for additional 24 h. TGF-β1 (BD Biosciences, San Jose, CA, USA) was administered at 5 ng/mL concentration in all experiments.
MRC-5 cell viability was evaluated using CytoTox-ONE™ Homogeneous Membrane Integrity Assay (Promega Corporation, Madison, WI, USA) according to the manufacturer’s protocol. The average fluorescence intensity with an excitation wavelength of 560 nm and an emission wavelength of 590 nm was measured using a microplate reader (SpectraMax® iD3, Molecular Devices, San Jose, CA, USA). Experiments were run three times in duplicates. MRC-5 proliferation was determined using the alamarBlue® assay. Cells were seeded for 24 h in standard culture medium, then serum-starved for an additional three days. Evaluated compounds (1-50 µM) were added 1 h prior FBS (10%, v/v) for an additional 48 h. After incubation, the alamarBlue® reagent (Invitrogen, Life Technologies, Carlsbad, CA, USA), dissolved in Hank’s Balanced Salt Solution (10% v/v; Gibco, Thermo Fisher Scientific, Waltham, MA, USA), was added for 30 min. After the observed color change, the supernatant was transferred to 96-well plates, and the absorbance was measured at 570 and 600 nm. The percent difference in reduction between treated and control cells was calculated according to the manufacturer’s protocol. The experiments were run three times in duplicates.
On the technique in general: Resazurin is reduced to fluorescent resorufin, in cell work by metabolically active cells.

Test [2] deals with TGF-β1-induced MRC-5 cells. Kind of test: Immunofluorescence, nuclear localization of p-CREB. It is filed as cell-based, human. The conditions noted are these: 10 µM. The protocol: (§1) For immunocytochemical labeling, MRC-5 cells were seeded on glass coverslips. Study compounds (10 µM) were added 1 h before TGF-β1 treatment, and analysis was performed after 1 h (p-Smad-2 and p-CREB detection) or 48 h (α-SMA detection) of incubation. Cells were fixed in methanol or 4% formaldehyde solution, permeabilized in 0.2% or 0.1% Triton X-100 solution (for p-Smad-2 and p-CREB or α-SMA, respectively). After incubation in blocking solution the following primary antibodies: rabbit polyclonal, anti-phospho-Smad-2 (Ser465, Ser467) antibody (#44-244G, Thermo Fisher Scientific, Waltham, MA, USA); rabbit polyclonal, anti-phospho-CREB1 (Ser133) antibody (#orb213775, Biorbyt, Cambridge, United Kingdom); mouse monoclonal, anti-α-SMA antibody (#MA5-11547, Thermo Fisher Scientific, Waltham, MA, USA) and secondary antibodies: goat anti-rabbit Alexa Fluor 546 conjugated antibody and goat anti-mouse Alexa Fluor 488 conjugated antibody (#A-11010 and #A-11001, respectively, Invitrogen, Carlsbad, CA, USA) were used. Nuclei were counterstained with Hoechst 33342 dye (Thermo Fisher Scientific, Waltham, MA, USA). Slides were mounted in ProLong™ Glass Antifade Mountant (Invitrogen, Carlsbad, CA, USA) and analyzed using Leica DMiL LED Fluo microscope (for α-SMA and p-CREB visualization, 40× objective) or Leica DMi8 with Thunder Imaging System (for p-Smad-2 visualization, 40× objective), all equipped with LAS-X Software (Leica Microsystems GmbH, Wetzlar, Germany). Experiments were run four times using five randomly selected fields of view, at the same fluorescent time exposure and in a blind-folded manner.

Test [3] has as its system TGF-β1-induced MRC-5 cells. The experiment in a line: Western blot of p-Smad-2. The format is cell-based, human. The conditions noted are these: 10 µM, 1 h pre-incubation, TGF-β1 5 ng/mL 1 h. How it is done:
Western Blot analysis was performed according to a standard protocol. Briefly, MRC-5 cells were pre-incubated with the study compounds (10 µM) for 1 h, […] (RIPA Lysis and Extraction Buffer, Thermo Fisher Scientific, Waltham, MA, USA) and supplemented with protease inhibitor cocktail and phosphatase inhibitor cocktail (both from Sigma Aldrich, St. Louis, MO, USA). Equal amounts of protein (30 µg) were separated using 10% SDS-polyacrylamide gels and transferred onto polyvinylidene difluoride (PVDF) membranes (Thermo Fisher Scientific, Waltham, MA, USA). Then membranes were washed with Tris Buffered Saline with Tween 20 (TBST) buffer (150 mM NaCl, 50 mM Tris, 0.05% Tween 20), blocked with 5% skim milk in TBST and incubated overnight with the appropriate primary antibody: rabbit, polyclonal anti-SMAD2 antibody, dilution 1:250, #51-1300 and rabbit, polyclonal anti-phospho-SMAD2 (Ser465, Ser467) antibody, dilution 1:500, #44-244G (both from Thermo Fisher Scientific, Waltham, MA, USA); rabbit, polyclonal anti-CREB1 antibody, dilution 1:500, #orb213777 and rabbit, polyclonal anti-phospho-CREB1 (Ser133) antibody, dilution 1:500, #orb213775 (both from Biorbyt LLC, San Francisco, CA, USA); mouse monoclonal anti-GAPDH antibody, dilution 1:5000, #G8795 (Sigma Aldrich, St. Louis, MO, USA). The next day, after gentle rising, membranes were exposed to secondary, rabbit anti-mouse IgG (whole molecule) peroxidase antibody (#A9044, dilution 1:3000, Sigma Aldrich, St. Louis, MO, USA) and goat anti-rabbit IgG (H+L) peroxidase-conjugated antibody (#32460, dilution 1:3000, Thermo Fisher Scientific, Waltham, MA, USA). Blots were visualized using a chemiluminescence method (Clarity Max™ Western ECL Substrate—Peroxide Solution, BioRad, Hercules, CA, USA) with a C-DiGit® Blot Scanner (LI-COR Biosciences, Lincoln, NE, USA). ROD was measured according to the NIH guidelines with Fiji ImageJ Software. The experiments were run four times.
In general terms: A western blot detects proteins with antibodies after separation by electrophoresis.

A further test addresses T1, TRPA1 (Homo sapiens, UniProt O75762).
T1 construct: host or cells: HEK293
The experiment in a line: TRPA1 antagonist FLIPR assay (functional, HEK293 cell-based). How it is done:
The TRPA1 agonist and antagonist fluorescent imaging plate reader (FLIPR) Assay (functional, HEK293 cell-based) was performed at Eurofins Panlabs, Inc. (St. Charles, MO, USA). The compounds were prepared in assay buffer to the final dilutions 10 and 50 µM. In each experiment, the respective reference compounds were tested: allyl isothiocyanate (the agonist assay) and ruthenium red (the antagonist assay). The […] assays were conducted on a FLIPR^TETRA instrument where the test compounds, vehicle controls, and reference agonists or antagonists were added to the assay plate after a fluorescence baseline was established. The agonist or antagonist incubation during the assay was for a total of 180 s and was used to assess each compound’s ability to activate or inactivate TRPA1. All plates were subjected to appropriate baseline corrections. Once baseline corrections were processed, maximum fluorescence values were exported, and data was manipulated to calculate percentage activation or percentage inhibition. Results showing activity greater than 25% were considered to represent significant effects of test compounds. Experiments were run three times, […].

Test [4] relates to TGF-β1-induced MRC-5 cells. The experiment in a line: Immunofluorescence count of α-SMA positive myofibroblasts. The conditions noted are these: 10 µM, 48 h TGF-β1 5 ng/mL. It is filed as cell-based, human. How it is done: as §1
In test [5] the test system is TGF-β1-induced MRC-5 cells. Kind of test: Protein kinase A activity. The format is cell-based, human. The conditions noted are these: 10 µM 30 min, then TGF-β1 30 min. How it is done:
Protein Kinase A (PKA) activity in MRC-5 cells was determined using a PKA Colorimetric Activity Kit (Invitrogen, Carlsbad, CA, USA) according to the manufacturer’s protocol. MRC-5 cells were seeded in standard culture medium, and after 48 h they were serum-starved for 2 h in HBSS, followed by the addition of study compounds (10 µM) and incubation for 30 min. Finally, TGF-β1 was administered, and the samples were incubated for an additional 30 min. Whole cell lysates were used in the assay. The amount of PKA was normalized to the total protein content in each sample. The experiments were run two times in duplicates.

In test [6] the test system is MRC-5 cells. Kind of test: Intracellular calcium measurements (Fluo-4). The format is cell-based, human. The conditions noted are these: 10 µM, acute application. The protocol:
MRC-5 cells were briefly washed with NaHEPES buffer (NaHEPES buffer was prepared as follows: NaCl 140 mM, KCl 4.7 mM, HEPES 10 mM, MgCl2 1 mM, glucose 10 mM; pH 7.3) and then loaded with 1 µM Fluo-4 AM (Thermo Fisher Scientific, Waltham, MA, USA) for 1 h, 37 °C in NaHEPES. After the incubation, the cells were washed again with fresh NaHEPES and used for experiments in a flow chamber perfused with NaHEPES-based extracellular solution supplemented with 1 mM CaCl2. All experiments were carried out at room temperature using Zeiss LSM 880 confocal microscope (40× oil objective), excitation was set to 488 nm, and the emission was between 500 and 600 nm. Each series of images was recorded at 256 × 256-pixel resolution, two consecutive frames were averaged, and the interval between the averaged images was set at 2 s. Fluorescence signals were plotted as F/F0, where F0 was baseline fluorescence defined as the averaged signal from ten consecutive baseline images.
A general note: A change in cytosolic calcium serves as a functional read-out for many receptors and channels.

T1 sequence (O75762 whole entry, species assumed): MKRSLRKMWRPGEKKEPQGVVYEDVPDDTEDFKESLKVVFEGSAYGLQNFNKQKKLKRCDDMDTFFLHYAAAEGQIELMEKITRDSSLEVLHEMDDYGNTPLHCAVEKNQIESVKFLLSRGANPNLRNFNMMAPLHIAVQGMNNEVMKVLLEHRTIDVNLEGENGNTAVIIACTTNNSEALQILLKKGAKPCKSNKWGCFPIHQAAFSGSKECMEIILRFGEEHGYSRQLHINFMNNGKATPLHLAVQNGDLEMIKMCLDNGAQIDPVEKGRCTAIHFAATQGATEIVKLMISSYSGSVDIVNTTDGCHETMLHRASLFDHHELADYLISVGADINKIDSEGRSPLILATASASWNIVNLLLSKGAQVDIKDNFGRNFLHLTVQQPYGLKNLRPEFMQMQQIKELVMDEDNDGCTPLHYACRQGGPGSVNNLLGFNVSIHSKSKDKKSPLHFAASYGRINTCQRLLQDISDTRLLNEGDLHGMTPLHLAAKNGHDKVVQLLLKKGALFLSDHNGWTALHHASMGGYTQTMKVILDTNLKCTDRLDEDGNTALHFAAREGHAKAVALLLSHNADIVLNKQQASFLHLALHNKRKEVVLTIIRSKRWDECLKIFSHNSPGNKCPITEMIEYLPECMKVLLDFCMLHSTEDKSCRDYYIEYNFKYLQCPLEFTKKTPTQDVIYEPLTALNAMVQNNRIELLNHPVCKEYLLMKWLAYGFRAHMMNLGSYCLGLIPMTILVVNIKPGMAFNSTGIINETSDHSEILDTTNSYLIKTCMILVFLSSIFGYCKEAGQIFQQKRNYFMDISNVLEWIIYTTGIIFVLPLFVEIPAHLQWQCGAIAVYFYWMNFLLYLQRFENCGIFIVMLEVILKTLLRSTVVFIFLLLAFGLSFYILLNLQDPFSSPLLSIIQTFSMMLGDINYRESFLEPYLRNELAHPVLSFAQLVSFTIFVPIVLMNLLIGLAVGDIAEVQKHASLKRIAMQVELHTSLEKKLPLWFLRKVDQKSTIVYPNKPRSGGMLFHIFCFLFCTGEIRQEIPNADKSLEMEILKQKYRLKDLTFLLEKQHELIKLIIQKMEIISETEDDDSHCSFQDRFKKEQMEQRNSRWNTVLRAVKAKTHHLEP

As for `CC(C)c1ccc(NC(=O)Cn2cnc3c2c(=O)n(C)c(=O)n3C)cc1` [HC-030031, 2-(1,3-dimethyl-2,6-dioxo-1,2,3,6-tetrahydro-7H-purin-7-yl)-N-(4-isopropylphenyl)acetamide, reference compound], in the test on MRC-5 cells [1] (50 µM), the inhibition at 50 µM is 15%. In addition, the “MRC-5 proliferation [% of control]” value is recorded as 98 % of control in the test with MRC-5 cells [1] (1 µM); 96 % of control with MRC-5 cells [1] (5 µM); 95 % of control with MRC-5 cells [1] (10 µM); 90 % of control in the test with MRC-5 cells [1] (15 µM); 90 % of control in the test with MRC-5 cells [1] (20 µM); 85 % of control in the test with MRC-5 cells [1] (50 µM). For the same molecule, the “elevation of fraction of MRC-5 cells with nuclear p-CREB localization” value in test [2] is listed as “only a slight increase”. The “TGF-β1-induced Smad-2 phosphorylation (immunoblot)” value in test [3] was “no differences”. Moreover, the “TRPA1 Inhibition (% of control)” value is 91.8 % of control on TRPA1 (10 µM) and 98.8 % of control on TRPA1 (50 µM). For the same molecule, the “number of myofibroblasts (MRC-5 with α-SMA-positive stress fibers); fibroblast to myofibroblast transition” value in test [4] is “did not show any significant effect”. Also, in test [5], the “Protein kinase A activity in TGF-β1-induced fibroblasts” value is “no significant change”.
As for `CC(C)CN1C(=O)/C(=C/C(=O)O)c2cccc(F)c21` [ASP 7663, (E)-2-(7-fluoro-1-isobutyl-2-oxoindolin-3-ylidene)acetic acid, reference compound], the “increase in average Ca2+ response area over baseline” value in the test on MRC-5 cells [6] was determined as 10 fold. Also, in the test on MRC-5 cells [1] (50 µM), the inhibition at 50 µM turned out to be 14%. Also, the “MRC-5 proliferation [% of control]” value in the test with MRC-5 cells [1] (1 µM) is listed as 99 % of control; in the test with MRC-5 cells [1] (5 µM), 97 % of control; in the test on MRC-5 cells [1] (10 µM), 96 % of control; in the test on MRC-5 cells [1] (15 µM) it was 92 % of control; in the test on MRC-5 cells [1] (20 µM) it was 89 % of control; with MRC-5 cells [1] (50 µM), 86 % of control.
